Test results taken from PubChem BioAssay (NCI).
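Values below derive from 48-hour exposures of cells grown in 96-well plates, with endpoints linearly interpolated between the two concentrations bracketing the appropriate inhibition level. The concentration for full growth arrest is given as TGI.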

Legend:
Assay in all cases: NCI anticancer screen, dose series, 48 h
[1] = system: U251 CNS
[2] = system: HT29 colon
[3] = system: HL-60(TB) leukemia
[4] = system: SR leukemia
[5] = system: HOP-18 NSCLC
[6] = system: UO-31 renal
[7] = system: K-562 leukemia
[8] = system: SNB-19 CNS
[9] = system: OVCAR-5 ovarian
[10] = system: NCI-H226 lung
[11] = system: RXF-631 renal
[12] = system: HCC-2998 colon
[13] = system: OVCAR-4 ovarian
[14] = system: MALME-3M melanoma
[15] = system: SNB-75 CNS
[16] = system: M14 melanoma
[17] = system: SK-OV-3 ovarian
[18] = system: NCI-H460 lung
[19] = system: OVCAR-8 ovarian
[20] = system: NCI-H23 lung
[21] = system: SF-268 CNS
[22] = system: OVCAR-3 ovarian
[23] = system: COLO 205 colon
[24] = system: EKVX NSCLC
[25] = system: RXF 393 renal
[26] = system: DLD-1 colon
[27] = system: UACC-62 melanoma
[28] = system: ACHN renal
[29] = system: UACC-257 melanoma
[30] = system: NCI-H522 lung
[31] = system: DMS 273 small cell lung
[32] = system: KM12 colon
[33] = system: CCRF-CEM leukemia
[34] = system: XF 498 CNS
[35] = system: LXFL 529 NSCLC
[36] = system: MOLT-4 leukemia
[37] = system: M19-MEL melanoma
[38] = system: SF-295 CNS
[39] = system: A498 renal
[40] = system: TK-10 renal
[41] = system: HOP-92 NSCLC
[42] = system: DMS 114 small cell lung
[43] = system: SF-539 CNS
[44] = system: 786-0 renal
[45] = system: SK-MEL-2 melanoma
[46] = system: IGROV1 ovarian
[47] = system: SN12C renal
[48] = system: SK-MEL-5 melanoma
[49] = system: SW-620 colon
[50] = system: HOP-62 NSCLC
[51] = system: SK-MEL-28 melanoma
[52] = system: LOX IMVI melanoma
[53] = system: HCT-116 colon
[54] = system: A549 NSCLC
[55] = system: CAKI-1 renal
[56] = system: RPMI-8226 leukemia
[57] = system: KM20L2 colon
[58] = system: HCT-15 colon
[59] = system: SNB-78 CNS

## C[C@H]1CC(=O)C2=CCCC3(SCCCS3)[C@@H]2[C@H]1CO
[1]
  TGI: > 100 µM
[2]
  TGI: > 100 µM
[3]
  TGI: > 100 µM
[4]
  TGI: > 100 µM
[5]
  TGI: > 100 µM
[6]
  TGI: > 100 µM
[7]
  TGI: > 100 µM
[8]
  TGI: > 100 µM
[9]
  TGI: > 100 µM
[10]
  TGI: > 100 µM
[11]
  TGI: > 100 µM
[12]
  TGI: > 100 µM
[13]
  TGI: > 100 µM
[14]
  TGI: > 100 µM
[15]
  TGI: > 100 µM
[16]
  TGI: > 100 µM
[17]
  TGI: > 100 µM
[18]
  TGI: > 100 µM
[19]
  TGI: > 100 µM
[20]
  TGI: > 100 µM
[21]
  TGI: > 100 µM
[22]
  TGI: > 100 µM
[23]
  TGI: > 100 µM
[24]
  TGI: > 100 µM
[25]
  TGI: > 100 µM
[26]
  TGI: > 100 µM
[27]
  TGI: > 100 µM
[28]
  TGI: > 100 µM
[29]
  TGI: > 100 µM
[30]
  TGI: > 100 µM
[31]
  TGI: > 100 µM
[32]
  TGI: > 100 µM
[33]
  TGI: > 100 µM
[34]
  TGI: > 100 µM
[35]
  TGI: > 100 µM
[36]
  TGI: > 100 µM
[37]
  TGI: > 100 µM
[38]
  TGI: > 100 µM
[39]
  TGI: > 100 µM
[40]
  TGI: > 100 µM
[41]
  TGI: > 100 µM
[42]
  TGI: > 100 µM
[43]
  TGI: > 100 µM
[44]
  TGI: > 100 µM
[45]
  TGI: > 100 µM
[46]
  TGI: > 100 µM
[47]
  TGI: > 100 µM
[48]
  TGI: > 100 µM
[49]
  TGI: > 100 µM
[50]
  TGI: > 100 µM
[51]
  TGI: > 100 µM
[52]
  TGI: > 100 µM
[53]
  TGI: > 100 µM
[54]
  TGI: > 100 µM
[55]
  TGI: > 100 µM
[56]
  TGI: > 100 µM

## O=C1c2nn(-c3ccccc3)nc2C(c2ccccc2)N1c1ccccc1 (stereo not drawn)
[1]
  TGI: > 100 µM
[2]
  TGI: > 100 µM
[4]
  TGI: > 100 µM
[5]
  TGI: > 100 µM
[6]
  TGI: > 100 µM
[7]
  TGI: > 100 µM
[8]
  TGI: > 100 µM
[9]
  TGI: > 100 µM
[57]
  TGI: > 100 µM
[10]
  TGI: > 100 µM
[12]
  TGI: > 100 µM
[13]
  TGI: > 100 µM
[14]
  TGI: > 100 µM
[15]
  TGI: 81.2 µM
[16]
  TGI: > 100 µM
[18]
  TGI: > 100 µM
[19]
  TGI: > 100 µM
[20]
  TGI: > 100 µM
[21]
  TGI: > 100 µM
[22]
  TGI: > 100 µM
[23]
  TGI: > 100 µM
[24]
  TGI: > 100 µM
[26]
  TGI: > 100 µM
[27]
  TGI: > 100 µM
[28]
  TGI: > 100 µM
[29]
  TGI: > 100 µM
[30]
  TGI: > 100 µM
[31]
  TGI: > 100 µM
[58]
  TGI: > 100 µM
[32]
  TGI: > 100 µM
[33]
  TGI: > 100 µM
[34]
  TGI: > 100 µM
[35]
  TGI: > 100 µM
[59]
  TGI: > 100 µM
[36]
  TGI: > 100 µM
[37]
  TGI: > 100 µM
[38]
  TGI: > 100 µM
[42]
  TGI: > 100 µM
[43]
  TGI: > 100 µM
[44]
  TGI: > 100 µM
[45]
  TGI: > 100 µM
[46]
  TGI: > 100 µM
[47]
  TGI: > 100 µM
[48]
  TGI: > 100 µM
[49]
  TGI: > 100 µM
[50]
  TGI: 96.6 µM
[51]
  TGI: > 100 µM
[52]
  TGI: > 100 µM
[53]
  TGI: > 100 µM
[54]
  TGI: > 100 µM
[55]
  TGI: > 100 µM
[56]
  TGI: > 100 µM
